Source: ChEMBL document CHEMBL1123926, “Synthesis and neuroleptic activity of a series of 1-[1-(benzo-1,4-dioxan-2-ylmethyl)-4-piperidinyl]benzim idazolone derivatives” (J Med Chem, 1987)

Key:
[1] = target: Dopamine receptor (Mus musculus) (UniProt P51436+Q8BLD9+Q61616+P61168+P30728); experiment: Neuroleptic activity determined by its inhibitory effect on apomorphine-induced climbing behavior in mice by intraperitoneal administration; assay type: functional, organism-based
[2] = target: T1, D(2) dopamine receptor (Bos taurus, UniProt P20288); experiment: Displacement of [3H]spiroperidol from bovine caudate nucleus membrane Dopamine receptor D2
T1 sequence (P20288 whole entry): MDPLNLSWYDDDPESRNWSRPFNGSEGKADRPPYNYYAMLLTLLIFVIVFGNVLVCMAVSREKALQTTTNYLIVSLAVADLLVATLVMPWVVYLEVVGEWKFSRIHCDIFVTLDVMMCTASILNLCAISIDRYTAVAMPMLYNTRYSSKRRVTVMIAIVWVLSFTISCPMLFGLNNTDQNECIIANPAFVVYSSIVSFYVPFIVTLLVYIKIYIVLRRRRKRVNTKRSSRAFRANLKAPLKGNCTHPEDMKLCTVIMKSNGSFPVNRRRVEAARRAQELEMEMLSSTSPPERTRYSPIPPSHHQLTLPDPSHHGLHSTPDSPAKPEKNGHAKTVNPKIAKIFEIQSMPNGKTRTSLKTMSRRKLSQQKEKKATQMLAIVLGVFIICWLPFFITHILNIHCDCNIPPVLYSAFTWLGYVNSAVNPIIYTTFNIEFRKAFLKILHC

[3] = system: Mus musculus; experiment: Neuroleptic activity determined by its inhibitory effect on apomorphine-induced climbing behavior in mice by intraperitoneal administration. Range is 0.009-0.109; assay type: functional; conditions: ip
[4] = species on record: Rattus norvegicus; experiment: Cataleptogenic activity was evaluated for the compound as the 50% effective dose required to induce cataleptic effect in rats; assay type: functional
[5] = Therapeutic ratio of ED50 of catalepsy in rats to ED50 of climbing in mouse; assay type: ADME, organism-based; conditions: rat and mouse, in vivo
[6] = target: T1, D(2) dopamine receptor; experiment: Binding affinity towards dopamine receptor D2 was determined by displacement of [3H]spiroperidol from bovine nucleus caudate membranes.
[7] = Therapeutic ratio of ED50 of catalepsy to ED50 of climbing in […]; assay type: ADME
[8] = system: Mus musculus; experiment: Neuroleptic activity determined by its inhibitory effect on apomorphine-induced climbing behavior in mice by intraperitoneal administration. Range is between 0.0033-0.278; assay type: functional; conditions: ip
[9] = system: Mus musculus; experiment: Neuroleptic activity determined by its inhibitory effect on apomorphine-induced climbing behavior in mice by peroral administration; assay type: functional; conditions: po
[10] = system: Mus musculus; experiment: Neuroleptic activity determined by its inhibitory effect on apomorphine-induced climbing behavior in mice by intraperitoneal administration. Range is 0.071-0.206; assay type: functional; conditions: ip
[11] = system: Mus musculus; experiment: Neuroleptic activity determined by its inhibitory effect on apomorphine-induced climbing behavior in mice by intraperitoneal administration. Range is 0.040-0.075; assay type: functional; conditions: ip
[12] = system: Mus musculus; experiment: Neuroleptic activity determined by its inhibitory effect on apomorphine-induced climbing behavior in mice by intraperitoneal administration. Range is 0.037-0.256; assay type: functional; conditions: ip
[13] = system: Mus musculus; experiment: Neuroleptic activity determined by its inhibitory effect on apomorphine-induced climbing behavior in mice by intraperitoneal administration in experiment 2. Range is 0.11-0.41; assay type: functional; conditions: ip
[14] = system: Mus musculus; experiment: Neuroleptic activity determined by its inhibitory effect on apomorphine-induced climbing behavior in mice by peroral administration in experiment 1.Range is 0.02-0.42; assay type: functional; conditions: po
[15] = system: Mus musculus; experiment: Neuroleptic activity determined by its inhibitory effect on apomorphine-induced climbing behavior in mice by intraperitoneal administration. Range is between 0.035-0.192; assay type: functional; conditions: ip
[16] = system: Mus musculus; experiment: Neuroleptic activity determined by its inhibitory effect on apomorphine-induced climbing behavior in mice by intraperitoneal administration. Range is between 0.009-0.037; assay type: functional; conditions: ip
[17] = system: Mus musculus; experiment: Neuroleptic activity determined by its inhibitory effect on apomorphine-induced climbing behavior in mice by intraperitoneal administration. Range is 0.007-0.250; assay type: functional; conditions: ip
[18] = system: Mus musculus; experiment: Neuroleptic activity determined by its inhibitory effect on apomorphine-induced climbing behavior in mice by intraperitoneal administration. Range is 0.007-0.029; assay type: functional; conditions: ip
[19] = system: Mus musculus; experiment: Neuroleptic activity determined by its inhibitory effect on apomorphine-induced climbing behavior in mice by intraperitoneal administration. Range is 0.008-0.766; assay type: functional; conditions: ip
[20] = system: Mus musculus; experiment: Neuroleptic activity determined by its inhibitory effect on apomorphine-induced climbing behavior in mice by intraperitoneal administration. Range is 0.019-0.092; assay type: functional; conditions: ip
[21] = system: Mus musculus; experiment: Neuroleptic activity determined by its inhibitory effect on apomorphine-induced climbing behavior in mice by intraperitoneal administration. Range is 0.03-0.064; assay type: functional; conditions: ip
[22] = species on record: Mus musculus; experiment: animal or person; conditions: ip
Description: Neuroleptic activity determined by its inhibitory effect on apomorphine-induced climbing behavior in mice by intraperitoneal administration in experiment 2 Range is 0.05-0.17

Structure (SMILES)	ED50 [1] [mg/kg]	ED50 [4] [mg/kg]	also measured
Oc1nc2cc(Cl)c(Cl)cc2n1C1CCN(CC2COc3ccc(F)cc3O2)CC1 (configuration not stated)	1.4	–	–
Cc1ccc2c(c1)OCC(CN1CCC(n3c(O)nc4cc(C)ccc43)CC1)O2 (configuration not stated)	–	6	Ki [2]: 40 nM; ED50 [3]: 0.032 mg/kg; selectivity ratio [5]: 188
Cc1c(Cl)ccc2nc(O)n(C3CCN(CC4COc5ccccc5O4)CC3)c12 (configuration not stated)	10	–	–
Cc1ccc2c(c1)nc(O)n2C1CCN(CC2COc3ccc(Cl)cc3O2)CC1 (configuration not stated)	0.093	1	Ki [6]: 30 nM; selectivity ratio [7]: 11
Oc1nc2cc(C(F)(F)F)ccc2n1C1CCN(CC2COc3ccc(F)cc3O2)CC1 (configuration not stated)	> 10	–	–
Cc1ccc2c(c1)nc(O)n2C1CCN(CC2COc3cc(F)ccc3O2)CC1 (configuration not stated)	0.5	–	–
COc1ccc2c(c1)nc(O)n2C1CCN(CC2COc3ccccc3O2)CC1 (configuration not stated)	–	1	Ki [2]: 150 nM; ED50 [8]: 0.0096 mg/kg; selectivity ratio [5]: 104
Oc1nc2cccnc2n1C1CCN(CC2COc3ccccc3O2)CC1 (configuration not stated)	> 10	–	–
Oc1nc2cc(Cl)ccc2n1C1CCN(CC2COc3ccc(F)cc3O2)CC1 (configuration not stated)	–	–	ED50 [9]: 0.14 mg/kg
Cc1ccc2c(c1)OCC(CN1CCC(n3c(O)nc4cc(Cl)ccc43)CC1)O2 (configuration not stated)	–	20	Ki [2]: 60 nM; ED50 [10]: 0.121 mg/kg; selectivity ratio [5]: 165
Oc1nc2ccccc2n1C1CCN(CC2COc3ccccc3O2)CC1 (configuration not stated)	0.7	–	–
Oc1nc2ccc(Cl)cc2n1C1CCN(CC2COc3ccccc3O2)CC1 (configuration not stated)	0.11	–	–
Oc1nc2cccnc2n1C1CCN(CC2COc3ccc(F)cc3O2)CC1 (configuration not stated)	> 25	–	–
Cc1cc2c(cc1C)OC(CN1CCC(n3c(O)nc4cc(F)ccc43)CC1)CO2 (configuration not stated)	–	> 20	Ki [2]: 25 nM; ED50 [11]: 0.055 mg/kg; selectivity ratio [5]: > 363
Cc1cccc2c1OCC(CN1CCC(n3c(O)nc4cc(Cl)ccc43)CC1)O2 (configuration not stated)	1.3	–	–
Oc1nc2cc(Cl)ccc2n1C1CCN(CC2COc3cc(Cl)c(Cl)cc3O2)CC1 (configuration not stated)	6	–	–
Oc1nc2cc(F)ccc2n1C1CCN(CC2COc3ccc(F)cc3O2)CC1 (configuration not stated)	–	20	selectivity ratio [5]: 204; ED50 [12]: 0.098 mg/kg
Nc1ccc2c(c1)nc(O)n2C1CCN(CC2COc3ccccc3O2)CC1 (configuration not stated)	3.9	–	–
Cc1cc2c(cc1C)OC(CN1CCC(n3c(O)nc4cc(Cl)ccc43)CC1)CO2 (configuration not stated)	0.8	–	–
Oc1nc2cc(Cl)ccc2n1C1CCN(CC2COc3cc(F)ccc3O2)CC1 (configuration not stated)	0.2	–	–
CCc1ccc2c(c1)nc(O)n2C1CCN(CC2COc3ccccc3O2)CC1 (configuration not stated)	0.17	–	–
CC(C)(C)c1ccc2c(c1)nc(O)n2C1CCN(CC2COc3ccccc3O2)CC1 (configuration not stated)	> 25	–	–

Structure (SMILES)	ED50 [1] [mg/kg]	ED50 [4] [mg/kg]	also measured
Cc1c(Cl)ccc2nc(O)n(C3CCN(CC4COc5ccc(F)cc5O4)CC3)c12 (configuration not stated)	> 25	–	–
Oc1nc2ccc(Cl)cc2n1C1CCN(CC2COc3ccc(F)cc3O2)CC1 (configuration not stated)	0.16	–	–
O=c1[nH]c2cc(F)ccc2n1C1CCN(CC2COc3cc(F)ccc3O2)CC1 (configuration not stated)	–	–	Ki [2]: 70 nM; selectivity ratio [5]: < 8
Oc1nc2cc(F)ccc2n1C1CCN(CC2COc3cc(F)ccc3O2)CC1 (configuration not stated)	0.63	< 5	–
O=c1[nH]c2cc(Cl)ccc2n1C1CCN(CC2COc3ccccc3O2)CC1 (configuration not stated) [AXAMOZIDE]	–	> 40	Ki [2]: 30 nM; ED50 [13]: 0.21 mg/kg; ED50 [14]: 0.09 mg/kg; selectivity ratio [5]: > 444
Cc1ccc2c(c1)nc(O)n2C1CCN(CC2COc3cc(Cl)c(Cl)cc3O2)CC1 (configuration not stated)	3.6	–	–
Oc1nc2cc(Br)ccc2n1C1CCN(CC2COc3ccccc3O2)CC1 (configuration not stated)	–	20	Ki [2]: 70 nM; ED50 [15]: 0.082 mg/kg; selectivity ratio [5]: 244
Oc1nc2cc(F)ccc2n1C1CCN(CC2COc3ccccc3O2)CC1 (configuration not stated)	–	–	ED50 [16]: 0.019 mg/kg
Cc1ccc2c(c1)nc(O)n2C1CCN(CC2COc3ccccc3O2)CC1 (configuration not stated)	–	40	Ki [2]: 120 nM; ED50 [17]: 0.013 mg/kg; selectivity ratio [5]: 3080
Cc1ccc2c(c1)nc(O)n2C1CCN(CC2COc3ccc(F)cc3O2)CC1 (configuration not stated)	–	2.5	Ki [2]: 150 nM; ED50 [18]: 0.014 mg/kg; selectivity ratio [5]: 187
Cc1ccc2c(c1)nc(O)n2C1CCN(CC2COc3cc(C)c(C)cc3O2)CC1 (configuration not stated)	–	10	Ki [2]: 45 nM; ED50 [19]: 0.079 mg/kg; selectivity ratio [5]: 126
Cc1cccc2c1OCC(CN1CCC(n3c(O)nc4cc(F)ccc43)CC1)O2 (configuration not stated)	–	8	Ki [2]: 8 nM; ED50 [20]: 0.043 mg/kg; selectivity ratio [5]: 186
Oc1nc2cc(-c3ccccc3)ccc2n1C1CCN(CC2COc3ccccc3O2)CC1 (configuration not stated)	> 25	–	–
Oc1nc2cc(F)ccc2n1C1CCN(CC2COc3cc(Cl)c(Cl)cc3O2)CC1 (configuration not stated)	5.5	–	–
Oc1nc2cc(F)ccc2n1C1CCN(CC2COc3ccc(Cl)cc3O2)CC1 (configuration not stated)	–	–	ED50 [21]: 0.044 mg/kg
Oc1nc2cccc(Cl)c2n1C1CCN(CC2COc3ccc(F)cc3O2)CC1 (configuration not stated)	> 25	–	–
Oc1nc2cc(Cl)c(Cl)cc2n1C1CCN(CC2COc3ccccc3O2)CC1 (configuration not stated)	0.45	–	–
O=C(CCCN1CCC(O)(c2ccc(Cl)cc2)CC1)c1ccc(F)cc1 [HALOPERIDOL]	–	0.5	ED50 [22]: 0.09 mg/kg
Oc1nc2cc(C(F)(F)F)ccc2n1C1CCN(CC2COc3ccccc3O2)CC1 (configuration not stated)	> 10	–	–
Oc1nc2cccc(Cl)c2n1C1CCN(CC2COc3ccccc3O2)CC1 (configuration not stated)	> 20	–	–
Oc1nc2cc(Cl)ccc2n1C1CCN(CC2COc3ccc(Cl)cc3O2)CC1 (configuration not stated)	0.75	–	–
